Source: ChEMBL document CHEMBL4270509, “Targeting Wnt-driven cancers: Discovery of novel tankyrase inhibitors” (Eur J Med Chem, 2017)
Values belong to the molecule of their own block, whether it stands above or below them.

What was measured:
[1] = Inhibition of Wnt/beta-catenin pathway (unknown origin) expressed in HEK293 cells by Wnt-responsive super-topflash luciferase reporter assay; format: cell-based; settings: Homo sapiens
[2] = molecular target: T1, Poly [ADP-ribose] polymerase tankyrase-1 (Homo sapiens, UniProt O95271)
T1 sequence (O95271 whole entry): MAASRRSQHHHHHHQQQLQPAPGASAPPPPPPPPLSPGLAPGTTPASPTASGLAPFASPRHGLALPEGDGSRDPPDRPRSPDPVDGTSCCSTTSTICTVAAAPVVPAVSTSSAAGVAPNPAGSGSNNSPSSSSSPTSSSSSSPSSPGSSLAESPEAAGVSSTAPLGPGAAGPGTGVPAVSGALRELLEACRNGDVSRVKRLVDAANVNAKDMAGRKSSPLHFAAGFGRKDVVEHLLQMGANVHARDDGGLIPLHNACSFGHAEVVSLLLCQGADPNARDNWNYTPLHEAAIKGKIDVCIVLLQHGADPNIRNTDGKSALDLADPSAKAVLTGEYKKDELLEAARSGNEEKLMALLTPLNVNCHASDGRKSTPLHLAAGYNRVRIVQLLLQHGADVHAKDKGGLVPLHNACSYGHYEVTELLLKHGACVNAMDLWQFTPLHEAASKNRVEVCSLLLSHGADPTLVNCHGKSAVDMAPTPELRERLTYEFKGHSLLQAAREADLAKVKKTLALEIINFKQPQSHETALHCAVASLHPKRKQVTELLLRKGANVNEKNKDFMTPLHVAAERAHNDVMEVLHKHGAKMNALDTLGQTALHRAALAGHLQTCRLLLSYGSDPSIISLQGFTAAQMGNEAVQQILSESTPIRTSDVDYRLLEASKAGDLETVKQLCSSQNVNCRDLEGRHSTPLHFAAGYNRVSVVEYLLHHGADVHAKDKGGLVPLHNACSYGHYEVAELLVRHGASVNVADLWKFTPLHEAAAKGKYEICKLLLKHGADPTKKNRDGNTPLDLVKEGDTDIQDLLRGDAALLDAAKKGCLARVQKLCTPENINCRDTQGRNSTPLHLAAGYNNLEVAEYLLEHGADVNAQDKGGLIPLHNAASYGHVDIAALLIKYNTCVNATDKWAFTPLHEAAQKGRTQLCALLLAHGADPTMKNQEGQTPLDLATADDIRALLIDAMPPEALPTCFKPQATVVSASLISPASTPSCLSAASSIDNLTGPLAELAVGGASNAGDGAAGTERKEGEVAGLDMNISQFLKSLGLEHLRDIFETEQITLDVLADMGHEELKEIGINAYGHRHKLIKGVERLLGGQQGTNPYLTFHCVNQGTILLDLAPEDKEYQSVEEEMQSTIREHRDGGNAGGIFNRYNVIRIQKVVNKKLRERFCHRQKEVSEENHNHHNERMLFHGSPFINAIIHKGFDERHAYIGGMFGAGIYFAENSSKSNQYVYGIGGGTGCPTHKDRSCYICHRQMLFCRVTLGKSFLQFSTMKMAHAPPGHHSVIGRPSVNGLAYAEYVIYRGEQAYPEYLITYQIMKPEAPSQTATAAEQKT
Description: Inhibition of human TNKS1 (1030 to 1317 residues) by fluorescence based activity assay

[3] = molecular target: T2, Poly [ADP-ribose] polymerase tankyrase-1 (Homo sapiens) (UniProt O95271); assay: Inhibition of TNKS1 (unknown origin) at 0.5 uM by colorimetric method
T2 sequence (whole entry): T1 sequence (O95271 whole entry)

MCF7 = assay: Growth inhibition of human MCF7 cells incubated for 24 hrs by MTT assay; format: functional, cell-based; settings: MCF7, 24 h
SW480 = assay: Antitumor activity against human SW480 cells xenografted in CB17/SCID mouse assessed as inhibition of tumor growth at 150 to 300 mg/kg after 3 weeks; format: functional
[4] = molecular target: T1, Poly [ADP-ribose] polymerase tankyrase-1; assay: Inhibition of TNKS1 (unknown origin)

SMILES: Cc1cccc2nc(Cn3c(=O)n(CC4CCC(C(=O)NCc5ccccc5)CC4)c(=O)c4ccccc43)cc(=O)n12 (centres undefined)
- EC50 [1]: 180 to 2000 nM

SMILES: CC(C)(C)c1ccc(-c2nc3ccccc3c(=O)[nH]2)cc1
- IC50 [2]: 5 nM

SMILES: COc1ccc(-n2c(SCc3nc(-c4ccc(C)cc4)no3)nnc2-c2ccncc2)cc1
- TGI (SW480): 30%

SMILES: Cn1c(-c2ccc(Cl)cc2Cl)nc(=O)c2cccnc21
- IC50 [4]: 11 µM

Now from value to molecule:

- inhibition [3]: 60%
- IC50 (MCF7): 5 µM
SMILES: Cc1c(Cl)cccc1NC(CC(=O)c1ccccc1)C(=O)OCC(=O)c1ccc([N+](=O)[O-])cc1 (centres undefined)

- EC50 [1]: 180 to 2000 nM
SMILES: N#Cc1ccccc1Cn1c(=O)n(CC2CCC(C(=O)NCc3ccccc3)CC2)c(=O)c2ccccc21 (centres undefined)

- EC50 [1]: 180 to 2000 nM
SMILES: O=C(Nc1cccc2cccnc12)c1ccc(C2C(=O)[C@@H]3[C@H](C2=O)[C@@H]2C=C[C@H]3C2)cc1 (some centres undefined)

- EC50 [1]: 180 to 2000 nM
SMILES: O=C(NC1CCCC1)c1ccc(Cn2c(=O)c3ccccc3n(Cc3cc(=O)n4ccccc4n3)c2=O)cc1
